The target in one experiment is T1, human OX1 receptors (Homo sapiens, UniProt O43613).
T1 construct: expressed in transfected cells; host or cells: CHO cells
T1 sequence (O43613 1-425): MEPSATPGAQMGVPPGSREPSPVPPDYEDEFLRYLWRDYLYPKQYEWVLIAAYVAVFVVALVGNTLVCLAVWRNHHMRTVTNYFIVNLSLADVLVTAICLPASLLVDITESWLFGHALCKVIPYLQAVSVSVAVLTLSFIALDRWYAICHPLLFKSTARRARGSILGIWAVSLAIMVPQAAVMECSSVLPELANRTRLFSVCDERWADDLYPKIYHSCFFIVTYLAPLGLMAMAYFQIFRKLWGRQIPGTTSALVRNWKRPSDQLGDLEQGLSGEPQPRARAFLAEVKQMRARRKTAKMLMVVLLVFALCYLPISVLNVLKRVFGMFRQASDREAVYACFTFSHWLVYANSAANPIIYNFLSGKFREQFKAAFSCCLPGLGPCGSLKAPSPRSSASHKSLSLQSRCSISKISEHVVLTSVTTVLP
The experiment is described as follows: antagonistic activity against human OX1 receptor, calcium fluorimetry (Fluo-4NW) in transfected CHO cells. The format is cell-based. Particulars: CHO cells transfected with human recombinant OX1, activated with orexin-A 3 nM; pKb = co-logarithm of apparent dissociation constant (modified Cheng Prusoff). On the procedure:
(§1) In a typical experiment, the antagonistic activity against human OX1 and OX2 receptors is determined by using CHO e HEK-293 cells transfected with human recombinant OX1 and OX2 receptors respectively, seeded at density of 2 and 3×10^4 cells/well respectively in a 96 fluorimetry well plate. Thus the plate was loaded with the calcium dye (Fluo-4NW/probenecid in HBSS, Hepes 20 mM, pH 7,4; Invitrogen) at 37° C. for 60 min. Afterward the temperature was equilibrated at 22° C. for 15 min and the [Ca2+]i measured directly on the plate by using a fluorescent plate reader (CellLux Perkin Elmer).
(§2) Invention compounds were dissolved in DMSO, diluted in HBSS (DMSO, 0.3% final) and added to the wells. After 5 min CHO cells were activated with orexin-A, 3 nM while HEK-293 cells were activated with orexin-B, 10 nM.
(§3) The compounds, dissolved in DMSO and diluted in the medium (DMSO, 0.3% final), have been analysed in the 1 nM-1 μM concentration range (every concentration in duplicate). The antagonistic activity has been expressed as pKb (co-logarithm of the apparent dissociation constant calculated by using the modified Cheng Prusoff equation).
(§4) The results are expressed as percent of control specific […] response ((measured specific response/control specific agonist response)×100) obtained in the presence of the test compounds.
(§5) The IC50 values (concentration causing a half-maximal inhibition of the control specific agonist response) were determinated by non-linear regression analysis of the concentration curves generated with mean replicate values using hill equation curve fitting. The IC50 values are obtained by the arithmetical mean of at least two experiments.

The target of a further experiment is T2, human OX2 receptors (Homo sapiens, UniProt O43614).
T2 construct: expressed in transfected cells; host or cells: HEK-293 cells
T2 sequence (O43614 1-444): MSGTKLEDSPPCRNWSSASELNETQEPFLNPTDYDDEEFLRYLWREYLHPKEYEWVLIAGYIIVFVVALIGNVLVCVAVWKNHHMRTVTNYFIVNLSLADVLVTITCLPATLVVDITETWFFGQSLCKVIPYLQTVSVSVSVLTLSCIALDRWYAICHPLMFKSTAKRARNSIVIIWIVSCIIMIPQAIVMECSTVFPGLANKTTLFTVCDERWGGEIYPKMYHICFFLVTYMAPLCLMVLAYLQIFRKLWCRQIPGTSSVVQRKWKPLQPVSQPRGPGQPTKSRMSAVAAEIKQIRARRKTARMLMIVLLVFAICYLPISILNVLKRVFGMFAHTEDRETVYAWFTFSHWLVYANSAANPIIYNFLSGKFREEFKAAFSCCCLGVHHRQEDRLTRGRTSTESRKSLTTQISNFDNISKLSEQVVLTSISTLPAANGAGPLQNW
Kind of experiment: antagonistic activity against human OX2 receptor, calcium fluorimetry (Fluo-4NW) in transfected HEK-293 cells. Particulars: HEK-293 cells transfected with human recombinant OX2, activated with orexin-B 10 nM; pKb = co-logarithm of apparent dissociation constant (modified Cheng Prusoff). The format is cell-based. On the procedure:
as §1, §2, §3, §4, §5

The Kb is the affinity of an antagonist, worked out from how it opposes an agonist. As for `N#Cc1ccc(-c2ncccn2)c(C(=O)N2[C@H](COc3ccc(Cl)cn3)CC[C@H]3C[C@H]32)c1` [Compound 3a, 3-((1R,3S,6S)-3-(((5-chloropyridin-2-yl)oxy)methyl)-2-azabicyclo[4.1.0]heptane-2-carbonyl)-4-(pyrimidin-2-yl)benzonitrile], the Kb on human OX1 receptors is 0.00126 µM; on human OX2 receptors it was 0.0631 µM.
The like results for `O=C(c1cc(Cl)ccc1-c1ncccn1)N1[C@H](COc2ccc(F)cn2)CC[C@H]2C[C@H]21` [Compound 3c, (5-chloro-2-(pyrimidin-2-yl)phenyl)((1R,3S,6S)-3-(((5-fluoropyridin-2-yl)oxy)methyl)-2-azabicyclo[4.1.0]heptan-2-yl)methanone] were, in that order, 0.0126 µM and 0.0631 µM.
For the compound `O=C(c1cc(Cl)ccc1-c1ncccn1)N1[C@H](COc2ccc(C(F)(F)F)cn2)CC[C@H]2C[C@H]21` [Compound 3d, (5-chloro-2-(pyrimidin-2-yl)phenyl)((1R,3S,6S)-3-(((5-(trifluoromethyl)pyridin-2-yl)oxy)methyl)-2-azabicyclo[4.1.0]heptan-2-yl)methanone], the Kb at human OX1 receptors is 0.00126 µM; on human OX2 receptors, 0.02 µM.
The like results for `O=C(c1cc(Cl)ccc1-c1ncccn1)N1[C@H](COc2ccc(Cl)cn2)CC[C@H]2C[C@H]21` [Compound 3e, (5-chloro-2-(pyrimidin-2-yl)phenyl)((1R,3S,6S)-3-(((5-chloropyridin-2-yl)oxy)methyl)-2-azabicyclo[4.1.0]heptan-2-yl)methanone] were, in that order, 0.001 µM and 0.0158 µM.
The matching figures for `Cc1ccc(-c2ncccn2)c(C(=O)N2[C@H](COc3ccc(Cl)cn3)CC[C@H]3C[C@H]32)c1` [Compound 3f, ((1R,3S,6S)-3-(((5-chloropyridin-2-yl)oxy)methyl)-2-azabicyclo[4.1.0]heptan-2-yl)(5-methyl-2-(pyrimidin-2-yl)phenyl)methanone]: 0.001 µM and 0.0501 µM.
The like results for `Cc1ccc(-c2ncccn2)c(C(=O)N2[C@H](COc3ccc(C(F)(F)F)cn3)CC[C@H]3C[C@H]32)c1` [Compound 3g, (5-methyl-2-(pyrimidin-2-yl)phenyl)((1R,3S,6S)-3-(((5-(trifluoromethyl)pyridin-2-yl)oxy)methyl)-2-azabicyclo[4.1.0]heptan-2-yl)methanone] were, in that order, 0.00158 µM and 0.0126 µM.
Take `Cc1ccc(-c2ncccn2)c(C(=O)N2[C@H](CNc3ccc(C(F)(F)F)cn3)CC[C@@H]3C[C@@H]32)c1` [Compound 4a, (5-methyl-2-(pyrimidin-2-yl)phenyl)((1S,3S,6R)-3-(((5-(trifluoromethyl)pyridin-2-yl)amino)methyl)-2-azabicyclo[4.1.0]heptan-2-yl)methanone]: the Kb was 0.00251 µM on human OX1 receptors and 0.0398 µM at human OX2 receptors.
The matching figures for `O=C(c1cc(Cl)ccc1-c1ncccn1)N1[C@H](CNc2ccc(C(F)(F)F)cn2)CC[C@@H]2C[C@@H]21` [Compound 4b, (5-chloro-2-(pyrimidin-2-yl)phenyl)((1S,3S,6R)-3-(((5-(trifluoromethyl)pyridin-2-yl)amino)methyl)-2-azabicyclo[4.1.0]heptan-2-yl)methanone]: 0.00501 µM and 0.2 µM.
The like results for `N#Cc1ccc(-c2ncccn2)c(C(=O)N2[C@H](CNc3ccc(C(F)(F)F)cn3)CC[C@@H]3C[C@@H]32)c1` [Compound 4c, 4-(pyrimidin-2-yl)-3-((1S,3S,6R)-3-(((5-(trifluoromethyl)pyridin-2-yl)amino)methyl)-2-azabicyclo[4.1.0]heptane-2-carbonyl)benzonitrile] were, in that order, 0.00631 µM and 0.0794 µM.
The matching figures for `O=C(c1cc(Cl)ccc1-c1ncccn1)N1[C@H](CNc2cc(C(F)(F)F)ccn2)CC[C@@H]2C[C@@H]21` [Compound 4d, (5-chloro-2-(pyrimidin-2-yl)phenyl)((1S,3S,6R)-3-(((4-(trifluoromethyl)pyridin-2-yl)amino)methyl)-2-azabicyclo[4.1.0]heptan-2-yl)methanone]: 0.00794 µM and 0.0501 µM.
For the compound `Cc1ccc(-c2ncccn2)c(C(=O)N2[C@H](CNc3cc(C(F)(F)F)ccn3)CC[C@@H]3C[C@@H]32)c1` [Compound 4f, (5-methyl-2-(pyrimidin-2-yl)phenyl)((1S,3S,6R)-3-(((4-(trifluoromethyl)pyridin-2-yl)amino)methyl)-2-azabicyclo[4.1.0]heptan-2-yl)methanone], the values for the Kb at human OX1 receptors and on human OX2 receptors were 0.00631 µM and 0.0398 µM, respectively.
For the compound `Cc1nc(C(=O)N2[C@H](CNc3ccc(C(F)(F)F)cn3)CC[C@@H]3C[C@@H]32)c(-c2ccccc2)s1` [Compound 5a, (2-methyl-5-phenylthiazol-4-yl)((1S,3S,6R)-3-(((5-(trifluoromethyl)pyridin-2-yl)amino)methyl)-2-azabicyclo[4.1.0]heptan-2-yl)methanone], the Kb on human OX1 receptors is 0.00251 µM; at human OX2 receptors, 0.0501 µM.

The values are drawn from patent US9174977B2, “2-azabicyclo[4.1.0]heptane derivatives as orexin receptor antagonists for the treatment of certain disorders” (Rottapharm Biotech S.r.l., priority 2012, dated 2015).
